In patent US20240299353A1, “COMPOSITIONS AND METHODS FOR TREATING […] 5-MEO-DMT” (Alvarius Pharmaceuticals Ltd., priority 2021, published 2024):

What was measured:
[1] = system: primary hippocampal neurons; experiment: Antagonist pre-treatment studies of neuronal structural change, Sholl analysis; type: cell-based, rat; details: for neuronal structural complexity (normalised AUC): meta-analysis
Protocol: Primary hippocampal cultures were grown on 18 mm glass coverslips at a density of 1×10^6 cells as described. On 3 DIV all cells underwent a full medium change. […] On 4 DIV, all cells underwent a second full medium change. Cells in the combination group were treated with 2 μM 5-MeO-DMT for a further 24 hours with all other groups beginning a 24-hour treatment. After treatment was completed the cells were fixed and processed as described below.
Based on the findings with other psychedelic drugs that share structural and behavioral similarities to 5-MeO-DMT we selected ANA-12 (Sigma), an antagonist of TrkB, the BDNF receptor, and rapamycin (ThermoFischer) an antagonist of the mammalian target of rapamycin (mTOR). Due to the affinity and known behavioral change induced by 5-MeO-DMT at the 5-HT1AR and 5-HT2AR we assessed their contribution to structural changes mediated by 5-MeO-DMT. The receptors were antagonized with WAY-100635 maleate (Tocris) or Ketanserin (Axxora), respectively. For all antagonist studies the antagonist under investigation was added 15 mins prior to drug treatment. […] ANA-12, Ketanserin and rapamycin were dissolved in dimethyl sulfoxide (DMSO) with a final concentration of 0.01-0.04% for treatment. WAY100635 was dissolved in sterile dH2O.
After termination of drug treatment coverslips were processed and imaged as outlined for immunocytochemistry. In all instances NeuN antibody staining was used to visualize projections from the cell body. Images were analyzed using the Simple Neurite Tracer and Sholl analysis plug-ins for ImageJ Fiji. For the Sholl analysis circle radii of 2 μm increments were used. All images were taken and analyzed by an experimenter blinded to treatment conditions.
Statistical Analysis—Data are represented as mean±SEM. Statistical analyses were performed using GraphPad Prism (version 5). For analyses involving comparison of three or more groups, a one-way ANOVA with Bonferroni's post-hoc test was utilized where appropriate. No statistics were calculated for the individual points of the Sholl plots, instead, statistical analyses were performed on the aggregate data, the area under the curve (AUC) of the Sholl plot. Secondary measurements were the Nmax, the maximum number of intersections measured by the Sholl analysis, which indicated the number of projections emanating from a neuron and the average length of primary neurites originating from the cell soma.

5-HT2AR = 5-HT2AR (Homo sapiens, UniProt P28223); details: metabolite of 5-MeO-DMT; cited from earlier work
hippocampal proteins = experiment: Hippocampal LC-MS/MS proteomics, chronic cocaine with single psychedelic administration; type: in vivo, Male Wister rats; details: for differential expression of proteins in the control hippocampus: single i.p. dose (5-MeO-DMT 5 mg/kg, LSD 0.14 mg/kg, psilocybin 1 mg/kg, DOI 1 mg/kg) vs saline-saline, p<0.05, FC ±20%; for differential expression of proteins in the chronic cocaine hippocampus: single i.p. dose after 14 days cocaine 20 mg/kg (5-MeO-DMT 5, LSD 0.14, psilocybin 1, DOI 1 mg/kg) vs cocaine-saline; for reversal of chronic cocaine mediated proteomic changes in the hippocampus: single treatment (5-MeO-DMT 5, LSD 0.14, psilocybin 1, DOI 1 mg/kg i.p.)
Protocol: (§1) Animals were then randomly allocated to one of five groups and received a single i.p. injection of one of vehicle, 5 mg/kg 5-Meo-DMT, 0.14 mg/kg LSD, 1 mg/kg psilocybin, or 1 mg/kg DOI. On day 15, animals were euthanised and the hippocampus blunt dissected, snap frozen in liquid nitrogen and stored at −80° C. until further processing.
Protein from hippocampal tissue was processed for liquid chromatography tandem Mass Spectrometry (LC-MS/MS). Samples were run on a Thermo Scientific Q Exactive Mass Spectrometer connected to a Dionex Ultimate 3000 (RSLCnano) chromatography system in the UCD Conway Institute Core Mass Spectrometry Facility. Peptide and protein identification of MS/MS spectra were searched against the rat UniProt database using carbamidomethylation (C) as a fixed modification and acetylation (protein N terminus) and oxidation (M) as variable modifications with a false discovery rate filtering of 0.01. MaxQuant was using to generate label-free quantitative (LFQ) ion intensities and the Perseus statistical software contained in the MaxQuant package was used to analyse LFQ ion intensity. Statistical significance (p<0.05, FC±20%) of mean LFQ intensity between treatment groups was determined by two sample t-test. […] Networks were visualised using the stringApp (version 1.6.0) plugin for the Cytoscape software platform (version 3.8.2).

[2] = system: top 10 cocaine-dysregulated biological pathways in the hippocampus; experiment: Biological pathway analysis (IPA) of transcriptomics, cocaine-dysregulated pathways; type: in vivo, Male Wister rats; details: single treatment
Protocol: as §1
Subsequent pathway analyses were done using Ingenuity Pathway Analysis (IPA). Analysis settings for IPA included the Ingenuity Knowledge Base (Genes Only), direct and indirect relationships, and endogenous chemicals of the previously filtered list of differentially expressed genes. IPA was filtered to only consider molecules where the species were human, rat, or mouse and the confidence can be experimentally observed. Canonical pathways were utilized in pathway analysis, where the spreadsheet organized the values of significance to −log(p-value) and the rate of regulation to the z-score. Negative z-score values indicate downregulation and positive values indicate upregulation.

[3] = ketanserin 100 μM treated groups relative to control

Chain of 5-HT2AR (P28223 whole entry): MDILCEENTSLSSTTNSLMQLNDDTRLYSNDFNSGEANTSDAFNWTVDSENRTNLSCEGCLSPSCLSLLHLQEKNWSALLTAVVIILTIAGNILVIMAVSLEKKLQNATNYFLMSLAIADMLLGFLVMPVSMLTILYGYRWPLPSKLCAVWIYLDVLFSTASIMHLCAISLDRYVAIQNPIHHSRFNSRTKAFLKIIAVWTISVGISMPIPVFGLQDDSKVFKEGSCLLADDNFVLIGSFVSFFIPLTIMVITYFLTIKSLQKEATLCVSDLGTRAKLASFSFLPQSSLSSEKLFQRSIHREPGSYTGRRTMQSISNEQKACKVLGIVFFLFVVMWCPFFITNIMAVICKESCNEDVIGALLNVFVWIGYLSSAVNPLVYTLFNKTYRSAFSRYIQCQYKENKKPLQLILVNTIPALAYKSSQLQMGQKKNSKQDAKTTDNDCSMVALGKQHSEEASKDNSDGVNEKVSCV

SMILES: O=C(Nc1ccccc1C(=O)NC1CCCCNC1=O)c1cc2ccccc2s1 (stereo not drawn) [ANA-12]
- average neurite length ([1]; ANA-12 10 μM pre-treatment, 5-MeO-DMT-induced increase): blocked
- AUC of the Sholl plot ([1]; ANA-12 10 μM, 15 min pre-treatment before 5-MeO-DMT, cocaine or combination): prevented the 5-Meo-, cocaine- or combination-induced increase in AUC
- maximum number of intersections (Nmax) ([1]; ANA-12 pre-treated combination group relative to vehicle pre-treated combination group): significantly reduced
- AUC of the Sholl plot ([1]; control+ANA-12 vs control+vehicle (basal complexity)): no difference in AUC
- neuronal structural complexity (normalised AUC) ([1]; ANA-12 pre-treatment): prevented the 5-Meo-, cocaine- or combination-induced increase in complexity

SMILES: COc1ccccc1N1CCN(CCN(C(=O)C2CCCCC2)c2ccccn2)CC1.O=C(O)/C=C\C(=O)O [WAY100635, WAY-100635 maleate]
- average neurite length ([1]; WAY100635 100 nM pre-treatment before 5-MeO-DMT): prevented the 5-Meo-mediated increase in neurite length
- maximum number of intersections (Nmax) ([1]; WAY100635 100 nM treated groups relative to vehicle treated pairings): significantly reduced
- normalised AUC of the Sholl plot ([1]; WAY100635 100 nM, 15 min pre-treatment before 5-MeO-DMT or cocaine): prevented the 5-Meo- and cocaine-induced increase in normalised AUC
- neuronal structural complexity (normalised AUC) ([1]; WAY100635 pre-treatment): prevented the increase in complexity mediated by all treatments

SMILES: CN(C)CCc1c[nH]c2ccc(O)cc12 [bufotenine, 5-hydroxy,N,Ndimethyltryptamine]
- affinity for the 5-HT2AR relative to the parent compound (5-HT2AR): much higher affinity for the 5-HT2AR than the parent compound

SMILES: O=C(c1ccc(F)cc1)C1CCN(CCn2c(=O)[nH]c3ccccc3c2=O)CC1 [Ketanserin]
- average neurite length [1, 3]: significantly decreased
- maximum number of intersections (Nmax) [1, 3]: significantly reduced
- normalised AUC of the Sholl plot ([1]; ketanserin 100 μM, 15 min pre-treatment, all treatment groups): significantly reduced normalised AUC across all treatment groups
- neuronal structural complexity (normalised AUC) ([1]; ketanserin pre-treatment): significantly reduced normalised AUC across all treatment groups

SMILES: COc1cc(CC(C)N)c(OC)cc1I (stereo not drawn) [DOI, 2,5-Dimethoxy-4-iodoamphetamine]
- differential expression of proteins in the control hippocampus (hippocampal proteins): 79 proteins
- differential expression of proteins in the chronic cocaine hippocampus (hippocampal proteins): 55 proteins
- reversal of chronic cocaine mediated proteomic changes in the hippocampus (hippocampal proteins): 70%

SMILES: CCN(CC)C(=O)[C@@H]1C=C2c3cccc4[nH]cc(c34)C[C@H]2N(C)C1 [LSD, Lysergic acid diethylamide]
- number of the top 10 dysregulated pathways corrected [2]: 5 pathways
- top 10 cocaine-dysregulated biological pathways corrected [2]: 50%
- differential expression of proteins in the control hippocampus (hippocampal proteins): 73 proteins
- differential expression of proteins in the chronic cocaine hippocampus (hippocampal proteins): 57 proteins
- reversal of chronic cocaine mediated proteomic changes in the hippocampus (hippocampal proteins): 59%

SMILES: CN(C)CCc1c[nH]c2cccc(OP(=O)(O)O)c12 [psilocybin, Psilocybin]
- number of the top 10 dysregulated pathways corrected [2]: 7 pathways
- top 10 cocaine-dysregulated biological pathways corrected [2]: 70%
- differential expression of proteins in the control hippocampus (hippocampal proteins): 91 proteins
- differential expression of proteins in the chronic cocaine hippocampus (hippocampal proteins): 45 proteins
- reversal of chronic cocaine mediated proteomic changes in the hippocampus (hippocampal proteins): 74%
